Reference: paper PMC11729419, “Thiol-Reactive or Redox-Active: Revising a Repurposing Screen Led to a New Invalidation Pipeline and Identified a True Noncovalent Inhibitor Against Papain-like Protease from SARS-CoV-2” (ACS Pharmacology & Translational Science, 2024)
Where a name gives a salt, the structure may show the parent alone. Read-outs that look alike come from different tables or passages of the source.

Legend:
[1] = target: SARS-CoV-2 Mpro (Severe acute respiratory syndrome coronavirus 2, UniProt P0DTD1); format: biochemical; details: 10 μM; 1 mM DTT
[2] = target: SARS-CoV-2 PLpro-NAB (Severe acute respiratory syndrome coronavirus 2, UniProt P0DTD1); assay: biochemical; details: for Inhibition in L-cysteine buffer versus DTT buffer (dose-response): 1 mM L-cysteine vs 1 mM DTT; for Inhibitory activity on retest in 1 mM L-cysteine: 50% inhibition at 20 μM
[3] = target: SARS-CoV-2 PLpro (Severe acute respiratory syndrome coronavirus 2, UniProt P0DTD1); format: biochemical; details: dose-response, ISG15 substrate
[4] = read-out: HC PLpro-NAB SARS-CoV-2 inhibition [%] 20 µM triplicates DTT BUFFER
[5] = read-out: HP PLpro-NAB SARS-CoV-2 inhibition [%] 20 µM triplicates L-CYS BUFFER
[6] = Table S1, DTT buffer, read-out: HP PLpro-NAB SARS-CoV-2 IC50 [µM] triplicates DTT BUFFER
[7] = Table S1, L-cysteine buffer, read-out: HP PLpro-NAB SARS-CoV-2 IC50 [µM] duplicates L-CYS BUFFER
[8] = Table S1, 20 µM, DTT buffer, average (SD)
[9] = Table S1, 20 µM, L-cysteine buffer, average (SD)

For N#CSc1cc(SC#N)c(N)nc1N [PR-619], the “Interference inhibition [%] 20 µM based on product interference DTT BUFFER” value (from here on “Interference inhibition [%] 20 µM based”) (Table S1, 20 µM, DTT buffer) was -14.28% and the “Inhibition of Mpro” value [1] was “inhibition of both proteases from SARS-CoV-2”.

In the case of CC1=CC(=O)c2ccccc2C1=O [Menadione], the “Interference inhibition [%] 20 µM based” value is reported as -9.41%, the inhibition at 20 µM [2, 4] is reported as 115% and the inhibition at 20 µM [2, 5] is reported as -45.7%.

In the case of NC(Cc1cc(O)c(O)cc1O)C(=O)O (racemic) [6-Hydroxy-DL-DOPA], the “Interference inhibition [%] 20 µM based” value (Table S1, 20 µM, DTT buffer) is reported as 14.95%.

With Cc1c(S(=O)(=O)O)oc2c1C(=O)C(=O)c1c-2ccc2c1CCCC2(C)C [Sodium-Tanshinone-ii-A-Sulfonate] the “Interference inhibition [%] 20 µM based” value (Table S1, 20 µM, DTT buffer) was -7.60% and the inhibition at 20 µM [2, 5] was -51.9%.

For Ro-08-2750, the “Interference inhibition [%] 20 µM based” value (Table S1, 20 µM, DTT buffer) was 0.17%.

For O=C(O)c1c(Cl)c(Cl)c(Cl)c(Cl)c1-c1c2cc(I)c(=O)c(I)c-2oc2c(I)c(O)c(I)cc12 [Rose Bengal Sodium], the “Interference inhibition [%] 20 µM based” value (Table S1, 20 µM, DTT buffer) was 12.07%, the inhibition at 20 µM ([2]; Table S1, 20 µM, DTT buffer, average (SD), read-out: HC PLpro-NAB SARS-CoV-2 inhibition [%] 20 µM triplicates DTT BUFFER) was 107% and the inhibition at 20 µM ([2]; Table S1, 20 µM, L-cysteine buffer, average (SD), read-out: HP PLpro-NAB SARS-CoV-2 inhibition [%] 20 µM triplicates L-CYS BUFFER) was -32.4%. The IC50 [2, 6] was greater than 20 µM and the IC50 [2, 7] was greater than 20 µM.

With Cn1cccc1/C=C1\C(=O)NC(=O)c2ccccc21 [BYK-204165] the “Interference inhibition [%] 20 µM based” value (Table S1, 20 µM, DTT buffer) was -5.54%.

With O=c1ccc2[n+]([O-])c3ccc(O)cc3oc-2c1 [Resazurin (sodium salt), Resazurin] the “Interference inhibition [%] 20 µM based” value (Table S1, 20 µM, DTT buffer) was 11.91%, the inhibition at 20 µM [2, 4] was 72.9% and the inhibition at 20 µM [2, 5] was -36.5%.

In the case of C[n+]1c2cc(N)ccc2cc2ccc(N)cc21.[Cl-] [Acriflavinium Hydrochloride], the “Interference inhibition [%] 20 µM based” value (Table S1, 20 µM, DTT buffer) is reported as -17.48%.

For CC1(C)CCC2=C(O1)C(=O)c1ccccc1C2=O [Alpha Lapachone], the “Interference inhibition [%] 20 µM based” value (Table S1, 20 µM, DTT buffer) was -0.29%.

For CN(C)CCNc1nc2cc(O)ccc2c2c1C(=O)c1ccccc1-2.Cl.Cl [TAS-103 (dihydrochloride)], the “Interference inhibition [%] 20 µM based” value (Table S1, 20 µM, DTT buffer) was 1.87%.

For Cc1cccc2c3c(ccc12)C1=C(C(=O)C3=O)[C@@H](C)CO1 [Dihydrotanshinone I], the “Interference inhibition [%] 20 µM based” value (Table S1, 20 µM, DTT buffer) was -55.01%.

For Ryuvidine, the “Interference inhibition [%] 20 µM based” value (Table S1, 20 µM, DTT buffer) was -2.15%.

In the case of COc1cccc2c(NCc3ccccc3)nc(-n3c(N)nc4ccccc43)nc12 [ML240], the “Interference inhibition [%] 20 µM based” value (Table S1, 20 µM, DTT buffer) is reported as 16.72%.

In the case of CC1(C)CCC2=C(O1)c1ccccc1C(=O)C2=O [Beta-Lapachone], the “Interference inhibition [%] 20 µM based” value (Table S1, 20 µM, DTT buffer) is reported as 13.40%.

In the case of CC[n+]1c(-c2ccccc2)c2cc(N)ccc2c2ccc(N)cc21 [Homidium Bromide], the “Interference inhibition [%] 20 µM based” value (Table S1, 20 µM, DTT buffer) is reported as 1.40%.

For CC[N+](C)(CC)CCC[n+]1c(-c2ccccc2)c2cc(N)ccc2c2ccc(N)cc21.[I-].[I-] [Propidium-Iodide], the “Interference inhibition [%] 20 µM based” value (Table S1, 20 µM, DTT buffer) was 0.27%.

For Cc1cc(-c2ccc(/C=C3/SC(=Nc4ccc(Cl)c(C(=O)O)c4)NC3=O)o2)c([N+](=O)[O-])cc1C [PT 1], the “Interference inhibition [%] 20 µM based” value (Table S1, 20 µM, DTT buffer) was 9.93%.

With Chicago-Sky-Blue-6b the “Interference inhibition [%] 20 µM based” value (Table S1, 20 µM, DTT buffer) was -5.59%.

For COCCn1c2c([n+](Cc3cnccn3)c1C)C(=O)c1ccccc1C2=O [YM-155], the “Interference inhibition [%] 20 µM based” value (Table S1, 20 µM, DTT buffer) was -0.69%.

For O=c1c(O)cccc2cc(O)c(O)c(O)c12 [purpurogallin], the “Potency against PLpro compared with PLpro-NAB” value [3] was “higher potency against PLpro compared with PLpro-NAB”, the “Interference inhibition [%] 20 µM based” value (Table S1, 20 µM, DTT buffer) was 12.84% and the “Preference PLpro over Mpro” value [1] was “preferential inhibition of PLpro over Mpro”. For the same compound, the “Inhibition in L-cysteine buffer versus DTT buffer (dose-response)” value [2] was “increased inhibition”, the “Inhibitory activity on retest in 1 mM L-cysteine” value [2] was “retained their inhibitory activity” and the inhibition at 20 µM ([2]; read-out: HC PLpro-NAB inhibition [%] 20 μM triplicates 1 mM DTT buffer) was 62.8%. The inhibition at 20 µM ([2]; read-out: HP PLpro-NAB inhibition [%] 20 μM triplicates 1 mM L-cys buffer) was 101%.

With CC1(C)C(=O)N=C2C1=C(O)C(=O)c1ccccc12 [BVT-948] the “Interference inhibition [%] 20 µM based” value (Table S1, 20 µM, DTT buffer) was -137.72%.

In the case of Cc1cc(-c2ccc(/N=N/c3ccc4c(S(=O)(=O)O)cc(S(=O)(=O)O)c(N)c4c3O)c(C)c2)ccc1/N=N/c1ccc2c(S(=O)(=O)O)cc(S(=O)(=O)O)c(N)c2c1O [Evans Blue], the “Interference inhibition [%] 20 µM based” value (Table S1, 20 µM, DTT buffer) is reported as 6.47%.

With O=C(Nc1ccccc1-c1cn2c(CN3CCNCC3)csc2n1)c1cnc2ccccc2n1 [SRT 1720] the “Interference inhibition [%] 20 µM based” value (Table S1, 20 µM, DTT buffer) was 22.23%.

With CCOC(=O)C1=C(C)N=c2sc(=Cc3ccc(OCC(=O)O)cc3)c(=O)n2C1c1ccc(SC)cc1 (stereo not drawn) [ML120] the “Interference inhibition [%] 20 µM based” value (Table S1, 20 µM, DTT buffer) was 3.32%.

In the case of Bacitracin [Bacitracin (Zinc)], the “Interference inhibition [%] 20 µM based” value (Table S1, 20 µM, DTT buffer) is reported as -1.67%.

For SF1670, the “Interference inhibition [%] 20 µM based” value (Table S1, 20 µM, DTT buffer) was 9.17%.

In the case of O=C1C(Cl)=C(NCCN2CCOCC2)C(=O)c2ncccc21 [NSC-663284 (FhG)], the “Interference inhibition [%] 20 µM based” value (Table S1, 20 µM, DTT buffer) is reported as -0.99%, the “Interference inhibition [%] 20 µM based” value (Table S1, 20 µM, DTT buffer, listed as NSC 663284 (EOS)) is reported as 14.95% and the “HC PLpro-NAB SARS-CoV-2 inhibition [%] 20 µM triplicates DTT BUFFER” value [2, 8] is reported as 150.90 (0.34) %. The “HC PLpro-NAB SARS-CoV-2 inhibition [%] 20 µM triplicates DTT BUFFER” value ([2]; Table S1, 20 µM, DTT buffer, average (SD), listed as NSC 663284 (EOS)) was 168.59 (3.49) %, the “HP PLpro-NAB SARS-CoV-2 inhibition [%] 20 µM triplicates L-CYS BUFFER” value [2, 9] was 7.56 (11.27) % and the “HP PLpro-NAB SARS-CoV-2 inhibition [%] 20 µM triplicates L-CYS BUFFER” value ([2]; Table S1, 20 µM, L-cysteine buffer, average (SD), listed as NSC 663284 (EOS)) was -38.39 (8.32) %. For the same compound, the IC50 ([2]; Table S1, DTT buffer, listed as NSC 663284 (EOS), read-out: HP PLpro-NAB SARS-CoV-2 IC50 [µM] triplicates DTT BUFFER) was 2.15 µM, the IC50 [2, 6] was 0.22 µM and the IC50 [2, 7] was greater than 20 µM.

For O=C1C=CC(=O)c2c(O)cccc21 [Juglone], the “Interference inhibition [%] 20 µM based” value (Table S1, 20 µM, DTT buffer) was 12.84%.

With O=C1C(=O)c2ccccc2-c2ccccc21 [9,10-Phenanthrenequinone] the “Interference inhibition [%] 20 µM based” value (Table S1, 20 µM, DTT buffer) was -2.46%.

In the case of O=C(O)c1cc(O)c2c(c1)[C@H]([C@H]1c3cc(C(=O)O)cc(O)c3C(=O)c3c(O[C@@H]4O[C@H](CO)[C@@H](O)[C@H](O)[C@H]4O)cccc31)c1cccc(O[C@@H]3O[C@H](CO)[C@@H](O)[C@H](O)[C@H]3O)c1C2=O [sennoside A], the “Interference inhibition [%] 20 µM based” value (Table S1, 20 µM, DTT buffer) is reported as 1.69%, the “Inhibition of Mpro” value [1] is reported as “inhibition of both proteases from SARS-CoV-2” and the “Inhibition in L-cysteine buffer versus DTT buffer (dose-response)” value [2] is reported as “lost its inhibitory potency”. For the same compound, the “Inhibitory activity on retest in 1 mM L-cysteine” value [2] was “retained their inhibitory activity”.

In the case of Oc1c(Cl)cc(Cl)c(Cl)c1Cc1c(O)c(Cl)cc(Cl)c1Cl [Hexachlorophene], the “Interference inhibition [%] 20 µM based” value (Table S1, 20 µM, DTT buffer) is reported as 15.14%.

With C[C@H]1COC2=C1C(=O)C(=O)c1c2ccc2c1CCCC2(C)C [Cryptotanshinone] the “Interference inhibition [%] 20 µM based” value (Table S1, 20 µM, DTT buffer) was 3.37%.

For Cyanocobalamin, the “Interference inhibition [%] 20 µM based” value (Table S1, 20 µM, DTT buffer) was 4.81%, the “HC PLpro-NAB SARS-CoV-2 inhibition [%] 20 µM triplicates DTT BUFFER” value [2, 8] was 141.27 (3.32) % and the “HP PLpro-NAB SARS-CoV-2 inhibition [%] 20 µM triplicates L-CYS BUFFER” value [2, 9] was 32.29 (7.95) %. It also gave an IC50 [2, 6] of 2.9 µM and an IC50 [2, 7] greater than 20 µM.

In the case of Cc1nc2c(=O)n(C)c(=O)nc-2n(C)n1 [3-Methyl Toxoflavin], the “Interference inhibition [%] 20 µM based” value (Table S1, 20 µM, DTT buffer) is reported as 10.44%.

For CC(C)Nc1cccnc1N1CCN(C(=O)c2cc3cc(NS(C)(=O)=O)ccc3[nH]2)CC1 [Delavirdine (mesylate), Delavirdine], the “Interference inhibition [%] 20 µM based” value was -20.91%, the inhibition at 20 µM [2, 4] was 52.2% and the inhibition at 20 µM [2, 5] was -69.3%.

For Walrycin B, the “Interference inhibition [%] 20 µM based” value (Table S1, 20 µM, DTT buffer, listed as Walrycin B (EOS)) was 8.01% and the “Interference inhibition [%] 20 µM based” value (Table S1, 20 µM, DTT buffer, listed as Walrycin B (FhG)) was 4.84%.

In the case of Nc1ccc(O)c2ncccc12 [PD119507], the “Interference inhibition [%] 20 µM based” value (Table S1, 20 µM, DTT buffer) is reported as 3.43%.
